How the values were obtained:
[1] = tested on: collagen-induced arthritis; conditions: Busso, N. et al. Plos One 3, e2267, 2008; cited from earlier work
activated T cells = conditions: Busso, N. et al. Plos One 3, e2267, 2008; cited from earlier work
[2] = tested on: experimental autoimmune encephalomyelitis (EAE); conditions: model of T-cell mediated autoimmune disorders; Bruzzone, S et al. Plos One 4, e7897, 2009; cited from earlier work
PC3 cells = test: NAMPT Cell Proliferation Assay (Cell Titer Glo; also performed in the presence of 0.3 mM nicotinamide mononucleotide); format: cell-based; conditions: Homo sapiens, PC-3, 120 h, 5 days incubation, cell viability by Cell Titer Glo
How it was run: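 Proliferation of PC3 cells treated 5 days with a 10-fold compound series (top 10 μM) was quantified by Cell Titer Glo luminescence; IC50s were fitted from percent inhibition.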

Row | SMILES | IC50 (PC3 cells) [nM] | other results
1 | O=C(/C=C/c1cccnc1)NCCCCC1CCN(C(=O)c2ccccc2)CC1 [FK866] | – | efficacy in animal models of arthritis (collagen-induced arthritis) [1]: efficacious; apoptosis of activated T cells (activated T cells): induce apoptosis; proliferation of activated T cells (activated T cells): selectively block proliferation; manifestations of experimental autoimmune encephalomyelitis (EAE) [2]: ameliorated the manifestations
2 | O=C(Nc1ccsc1)c1ccc(NC(=O)C2CN(c3cccnn3)C2)cc1 [Example 984, 1-(pyridazin-3-yl)-N-[4-(thiophen-3-ylcarbamoyl)phenyl]azetidine-3-carboxamide] | 696 | –
3 | CC(C)CC(=O)N1CCC(c2ccc(NC(=O)C3CN(c4cccnn4)C3)cc2F)CC1 [Example 887, N-{3-fluoro-4-[1-(3-methylbutanoyl)piperidin-4-yl]phenyl}-1-(pyridazin-3-yl)azetidine-3-carboxamide] | 8.47 | –
4 | COCC(C)(C)CNC(=O)c1ccc(NC(=O)C2CN(c3cccnn3)C2)cc1 [Example 974, N-{4-[(3-methoxy-2,2-dimethylpropyl)carbamoyl]phenyl}-1-(pyridazin-3-yl)azetidine-3-carboxamide] | 7.84 | –
5 | O=C(Nc1ccc(C2CCN(C(=O)CC3CC3)CC2)c(F)c1)C1CN(c2cccnn2)C1 [Example 888, N-{4-[1-(cyclopropylacetyl)piperidin-4-yl]-3-fluorophenyl}-1-(pyridazin-3-yl)azetidine-3-carboxamide] | 9.76 | –
6 | CN1CCCC(CNC(=O)c2ccc(NC(=O)C3CN(c4cccnn4)C3)cc2)C1 (centres unmarked) [Example 1003, N-(4-{[(1-methylpiperidin-3-yl)methyl]carbamoyl}phenyl)-1-(pyridazin-3-yl)azetidine-3-carboxamide] | 1070 | –
7 | CC(C)(C)CC(=O)N1CCC(c2ccc(C(=O)N[C@H]3CCN(c4cccnn4)C3)s2)CC1 [Example 1014, 5-[1-(3,3-dimethylbutanoyl)piperidin-4-yl]-N-[(3S)-1-(pyridazin-3-yl)pyrrolidin-3-yl]thiophene-2-carboxamide] | 219 | –
8 | O=C(Nc1ccc(CC2CCN(C(=O)C3CC3)CC2)cc1)C1CN(c2cccnn2)C1 [Example 967, N-(4-{[1-(cyclopropylcarbonyl)piperidin-4-yl]methyl}phenyl)-1-(pyridazin-3-yl)azetidine-3-carboxamide] | 3.05 | –

More lines, main results first:

Row | IC50 (PC3 cells) [nM] | SMILES | other results
9 | 2.07 | CC(C)C(=O)N1CCC(Cc2ccc(NC(=O)C3CN(c4cccnn4)C3)cc2)CC1 [Example 901, N-(4-{[1-(2-methylpropanoyl)piperidin-4-yl]methyl}phenyl)-1-(pyridazin-3-yl)azetidine-3-carboxamide] | –
10 | 2.6 | O=C(Nc1ccc(CC2CCN(C(=O)C3CCCCC3)CC2)cc1)C1CN(c2cccnn2)C1 [Example 965, N-(4-{[1-(cyclohexylcarbonyl)piperidin-4-yl]methyl}phenyl)-1-(pyridazin-3-yl)azetidine-3-carboxamide] | –
11 | 2.15 | O=C(Nc1ccc(CC2CCN(C(=O)c3ccccc3)CC2)cc1)C1CN(c2cccnn2)C1 [Example 895, N-{4[(1-benzoylpiperidin-4-yl)methyl]phenyl}-1-(pyridazin-3-yl)azetidine-3-carboxamide] | –
